{
  "source": "patent US20080275063A1",
  "about": "“Inhibitors of protein kinases” (priority 2007, published 2008)",
  "key": {"[1]": {"tested_on": "Tau protein at Serin396 in differentiated SH-SY5Y cells", "test": "In vitro SH-SY5Y assay, tau phosphorylation", "assay_type": "cell-based, human", "conditions": "RA- and BDNF-differentiated SH-SY5Y cells, 90-120 min incubation, Western Blot or ELISA", "from_the_text": "Abnormal tau phosphorylation and deregulated CDK5/p35 activity are closely linked to each other and represent hallmarks of neurodegenerative diseases such as Alzheimer's disease, Parkinson's disease or Amyotrophic lateral sclerosis. The human neuroblastoma cell line SH-SY5Y can be utilized as an in vitro model to investigate CDK5 function and the efficacy of CDK5 specific inhibitors. SH-SY5Y cells express tau protein which harbors various phosphorylation sites known to be phosphorylated by several kinases including CDK5. SH-SY5Y cells can be differentiated into neuron-like cells by exposure to 10 μM all trans-retinoic acid for 3 days and subsequent exposure to 50 ng/ml human recombinant brain-derived neurotrophic factor for 3-5 days, thereby upregulating neuronal markers, including tau protein. In addition CDK5 and p35 protein levels were increased during differentiation. […]\nConcentrations of total tau, pS396 tau and pT231 tau within the cell culture lysates are measured by using commercial ELISA Kits (BioSource: human total tau: KHB0042; human pS396 tau: KHB7031; human pT231 tau: KHB7051) according to the manufacturers instructions or by using Western Blots probing with total and phospho-specific antibodies (antibodies: total tau: Santa Cruz, sc-21796; pS396 tau: Santa Cruz, sc-12414; pT231 tau, AT180: Pierce Endogen, MN1040; pS202 tau: AT8: Pierce Endogen, MN1020). […]"}},
  "data": [
    {"smiles": "CCOc1ccccc1-c1cc(Nc2ccc(CS(N)(=O)=O)cc2)ncn1", "note": "[Compound 6, {4-[6-(2-Ethoxy-phenyl)-pyrimidin-4-ylamino]-phenyl}-methanesulfonamide]", "values": [
      {"measurement": "melting point", "value": "213.5 to 215.1", "unit": "°C"}
    ]},
    {"smiles": "NS(=O)(=O)Cc1ccc(Nc2cc(-c3ccccc3OCc3ccccc3)ncn2)cc1", "note": "[Compound 8, {4-[6-(2-Benzyloxy-phenyl)-pyrimidin-4-ylamino]-phenyl}-methanesulfonamide]", "values": [
      {"measurement": "effect on Tau phosphorylation at Serin396", "setting": "[1]", "value": "significant inhibitory effect"}
    ]},
    {"smiles": "COCCCNS(=O)(=O)Cc1cccc(Nc2cc(-c3ccccc3OC)ncn2)c1", "note": "[Reference compound 3, C-{3-[6-(2-methoxy-phenyl)-pyrimidin-4-ylamino]-phenyl}-N-(3-methoxy-propyl)-methanesulfonamide]", "values": [
      {"measurement": "melting point", "value": "149.2 to 150.8", "unit": "°C"}
    ]}
  ]
}
